Source: BindingDB's records for doi:10.7270/Q2PZ577D (The Scripps Research Institute Molecular Screening Center, 2008)

Target: T1, Signal transducer and activator of transcription 3 [702-738,740-752] (Homo sapiens, UniProt P40763)
T1 construct: 702-738,740-752
Assay: dose response, counter-screen for STAT1 inhibitor project (AID 1409)

T1 sequence (P40763 as listed by the source): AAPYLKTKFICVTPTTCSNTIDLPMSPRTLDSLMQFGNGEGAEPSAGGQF

CCN1C(=O)C(=CNNC(=O)c2ccncc2)C(=O)N(CC)C1=S [SMR000218837]
IC50: > 55.7 µM
